Molecules are shown by their SMILES. Where a name gives a salt, the structure may show the parent alone. Read-outs that look alike come from different tables or passages of the source.

Ten molecules from patent publication US12110279B2, “Triazolones, tetrazolones, and imidazolones, or their salts, and pharmaceutical compositions comprising the same” (Yuhan Corporation, priority 2021, dated 2024) can be followed below.

Format in all cases: biochemical
Assay [1] concerns the target T1, recombinant human MAO-B (monoamine oxidase-B) (Homo sapiens, UniProt P27338).
T1 construct: purchased Sigma-Aldrich
T1 sequence (P27338 1-520): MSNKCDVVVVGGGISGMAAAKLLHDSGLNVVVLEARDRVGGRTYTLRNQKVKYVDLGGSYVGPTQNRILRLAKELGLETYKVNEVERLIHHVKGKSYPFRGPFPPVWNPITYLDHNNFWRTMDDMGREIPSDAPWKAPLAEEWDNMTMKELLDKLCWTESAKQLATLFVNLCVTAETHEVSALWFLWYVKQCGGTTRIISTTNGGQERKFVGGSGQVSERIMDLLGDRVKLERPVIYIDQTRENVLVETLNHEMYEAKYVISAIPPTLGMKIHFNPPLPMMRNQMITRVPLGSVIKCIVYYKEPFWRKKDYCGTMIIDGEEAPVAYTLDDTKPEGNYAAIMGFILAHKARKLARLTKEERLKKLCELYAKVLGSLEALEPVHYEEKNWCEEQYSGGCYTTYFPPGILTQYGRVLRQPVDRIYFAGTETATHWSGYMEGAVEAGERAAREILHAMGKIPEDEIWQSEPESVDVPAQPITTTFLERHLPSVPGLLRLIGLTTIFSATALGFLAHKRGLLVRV
As to the kind of experiment: Amplex Red HRP-coupled amine oxidase activity evaluation, recombinant human MAO-B. Conditions: substrate 1 mM benzylamine; read-out: Inhibitory Activity (IC50, nM) MAO-B. The protocol:
[The source words this procedure for another target and says it was used here with some conditions changed.] (§1) The compounds according to the present technology were evaluated in terms of activity on recombinant human VAP-1 (R&D systems) by measuring the level of hydrogen peroxide in horseradish peroxidase (HRP)-coupled reaction using Amplex Red Hydrogen Peroxide Assay Kit (Molecular Probes, Invitrogen, USA). The experiment was carried out at room temperature using benzylamine as a substrate. In the HRP-coupled reaction, hydrogen peroxide oxidation of 10-acetyl-3,7-dihydroxyphenoxazine (Amplex Red reagent) produces resorufin, which is a highly fluorescent compound. Briefly, the test compound was dissolved in dimethyl sulfoxide (DMSO) at a concentration of 20 mM. The dose-response assessment was made by 1:3 serial dilution in DMSO, thereby creating an 8-point curve. The concentration of the upper part was controlled according to the efficacy of the compounds, followed by dilution with a reaction buffer solution to obtain a final DMSO concentration of less than 1%. To each well of a 96 black well plate, human VAP-1 purified in 50 mM sodium phosphate buffer solution (pH7.4) was added. The test compounds dissolved in DMSO were incubated with the human VAP-1 enzymes at 37° C. for 30 minutes. After 30-minute incubation, each well was added with a reaction mixture containing 200 uM Amplex Red reagent prepared from 50 mM sodium phosphate buffer solution (pH 7.4), 1 mM benzylamine, and 1 U/mL HRP. Fluorescence intensity was measured at several time points during 1-2 hours using a microplate reader (Flexstation3, Molecular Devices) under the wavelength condition exciting at 544 nm and reading the emission at 590 nm. The inhibitory effect of the compounds was measured as a decrease (%) in the signal rate as compared to the control group without any inhibitor (only diluted DMSO). Data was fixed to a logistic model with four variables and IC50 value was calculated using GraphPad Prism program.

Assay [2] concerns the target T2, recombinant human MAO-A (monoamine oxidase-A) (Homo sapiens, UniProt P21397).
T2 construct: purchased Sigma-Aldrich
T2 sequence (P21397 1-527): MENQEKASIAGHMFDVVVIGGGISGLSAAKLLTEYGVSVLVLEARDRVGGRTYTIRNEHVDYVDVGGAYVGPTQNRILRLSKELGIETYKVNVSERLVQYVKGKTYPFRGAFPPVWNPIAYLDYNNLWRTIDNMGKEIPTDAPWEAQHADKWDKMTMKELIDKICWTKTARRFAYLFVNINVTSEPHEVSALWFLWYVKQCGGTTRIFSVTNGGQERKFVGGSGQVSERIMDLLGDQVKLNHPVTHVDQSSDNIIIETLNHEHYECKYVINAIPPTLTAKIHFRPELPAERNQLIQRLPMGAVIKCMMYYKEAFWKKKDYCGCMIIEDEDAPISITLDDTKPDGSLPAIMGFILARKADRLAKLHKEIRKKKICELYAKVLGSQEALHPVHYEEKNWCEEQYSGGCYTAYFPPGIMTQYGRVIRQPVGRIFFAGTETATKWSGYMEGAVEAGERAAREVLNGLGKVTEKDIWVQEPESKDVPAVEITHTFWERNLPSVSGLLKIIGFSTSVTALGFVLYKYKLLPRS
Put plainly: Amplex Red HRP-coupled amine oxidase activity evaluation, recombinant human MAO-A. The conditions noted are these: substrate 0.5 mM tyramine; read-out: Inhibitory Activity (IC50, nM) MAO-A. The protocol: [The source words this procedure for another target and says it was used here with some conditions changed.] as §1

Assay [3] has as its target T3, recombinant human DAO (diamine oxidase) (Homo sapiens, UniProt P19801).
T3 construct: purchased R&D systems
T3 sequence (P19801 20-751): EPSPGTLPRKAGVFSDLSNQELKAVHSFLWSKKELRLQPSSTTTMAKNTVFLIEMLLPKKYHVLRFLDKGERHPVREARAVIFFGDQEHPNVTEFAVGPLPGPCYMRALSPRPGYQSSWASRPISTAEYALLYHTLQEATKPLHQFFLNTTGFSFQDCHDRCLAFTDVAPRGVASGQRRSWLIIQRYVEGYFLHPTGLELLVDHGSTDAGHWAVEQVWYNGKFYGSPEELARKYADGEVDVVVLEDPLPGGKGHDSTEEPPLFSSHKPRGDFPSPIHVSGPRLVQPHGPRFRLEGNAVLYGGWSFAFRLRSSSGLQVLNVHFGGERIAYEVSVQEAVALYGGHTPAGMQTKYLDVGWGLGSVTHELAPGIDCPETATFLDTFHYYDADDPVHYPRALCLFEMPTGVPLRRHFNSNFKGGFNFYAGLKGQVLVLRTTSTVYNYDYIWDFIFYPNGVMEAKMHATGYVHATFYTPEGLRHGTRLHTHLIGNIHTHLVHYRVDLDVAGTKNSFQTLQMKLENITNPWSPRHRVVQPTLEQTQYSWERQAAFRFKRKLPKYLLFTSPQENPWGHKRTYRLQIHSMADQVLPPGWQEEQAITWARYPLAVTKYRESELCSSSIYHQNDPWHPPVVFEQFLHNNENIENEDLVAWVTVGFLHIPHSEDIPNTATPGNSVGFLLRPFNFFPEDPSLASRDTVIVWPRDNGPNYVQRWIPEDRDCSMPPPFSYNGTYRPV
As to the kind of experiment: Amplex Red HRP-coupled amine oxidase activity evaluation, recombinant human DAO. The protocol:
[The source words this procedure for another target and says it was used here with some conditions changed.] as §1

Assay [4] addresses T4, recombinant human VAP-1 (Homo sapiens, UniProt Q16853).
T4 construct: purchased R&D systems
T4 sequence (Q16853 1-763): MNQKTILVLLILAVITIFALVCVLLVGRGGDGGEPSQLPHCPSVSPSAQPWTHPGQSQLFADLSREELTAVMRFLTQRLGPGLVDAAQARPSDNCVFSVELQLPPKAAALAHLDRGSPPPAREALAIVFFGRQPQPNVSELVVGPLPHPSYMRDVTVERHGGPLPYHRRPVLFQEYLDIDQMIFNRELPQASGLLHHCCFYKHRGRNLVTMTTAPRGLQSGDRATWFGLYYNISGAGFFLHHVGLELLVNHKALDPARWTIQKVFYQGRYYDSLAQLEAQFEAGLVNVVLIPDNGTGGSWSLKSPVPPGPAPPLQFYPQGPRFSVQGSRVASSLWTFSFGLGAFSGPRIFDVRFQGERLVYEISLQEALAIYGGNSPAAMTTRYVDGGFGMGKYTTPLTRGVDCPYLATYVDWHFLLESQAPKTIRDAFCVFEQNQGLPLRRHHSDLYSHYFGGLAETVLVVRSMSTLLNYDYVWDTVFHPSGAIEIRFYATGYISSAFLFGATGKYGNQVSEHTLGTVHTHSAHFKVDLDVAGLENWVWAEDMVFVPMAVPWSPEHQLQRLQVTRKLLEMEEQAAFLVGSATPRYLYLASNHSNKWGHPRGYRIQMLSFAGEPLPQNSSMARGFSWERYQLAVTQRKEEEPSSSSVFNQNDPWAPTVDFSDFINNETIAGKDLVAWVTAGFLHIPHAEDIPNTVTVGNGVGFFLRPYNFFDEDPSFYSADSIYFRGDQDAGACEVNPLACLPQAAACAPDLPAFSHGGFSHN
As to the kind of experiment: Amplex Red HRP-coupled amine oxidase activity evaluation, recombinant human VAP-1. Conditions: substrate 1 mM benzylamine; 30 min preincubation at 37° C.; read-out: Inhibitory Activity (IC50, nM) human VAP-1. On the procedure:
as §1

Where [5] appears, read: substrate 1 mM putrescine, read-out: Inhibitory Activity (IC50, nM) DAO.

One may read the IC50 as the concentration that inhibits the measured activity by half. Turning to `Cc1ccc(-c2cc(C)c3c(c2)CCC(=O)N3)nc1-n1nnn(CC(CN)=C(F)F)c1=O` [Example 25, 6-[6-[4-[2-(aminomethyl)-3,3-difluoro-allyl]-5-oxo-tetrazol-1-yl]-5-methyl-2-pyridyl]-8-methyl-3,4-dihydro-1H-quinolin-2-one trifluoroacetate], the IC50 was more than 100000 nM in assay [1], more than 100000 nM in assay [2], 1110 nM in assay [3] and 13 nM in assay [4].
For `Cc1cc(-c2ccc(Cn3c(C)nn(CC(CN)=C(F)F)c3=O)s2)cc2c1NC(=O)CC2` [Example 7, 6-[5-[[1-[2-(aminomethyl)-3,3-difluoro-allyl]-3-methyl-5-oxo-1,2,4-triazol-4-yl]methyl]-2-thienyl]-8-methyl-3,4-dihydro-1H-quinolin-2-one trifluoroacetate], the concentration for half-maximal inhibition (IC50) was more than 100000 nM in assay [1], more than 100000 nM in assay [2], more than 100000 nM in assay [3] (setting [5]) and 1 nM in assay [4].
As to `NCC(Cn1nnn(-c2ccc(-c3ccc4c(c3)OCO4)cc2)c1=O)=C(F)F` [Example 19, 1-[2-(aminomethyl)-3,3-difluoro-allyl]-4-[4-(1,3-benzodioxol-5-yl)phenyl]tetrazol-5-one trifluoroacetate], the IC50 in assay [1] is 8.8 nM; in assay [2], more than 100000 nM; in assay [3] (setting [5]), 4890 nM; in assay [4], 0.5 nM.
For `CCn1cc(-c2ccc(Cn3nnn(CC(CN)=C(F)F)c3=O)s2)ccc1=O` [Example 44, 5-[5-[[4-[2-(aminomethyl)-3,3-difluoro-allyl]-5-oxo-tetrazol-1-yl]methyl]-2-thienyl]-1-ethyl-pyridin-2-one trifluoroacatate], in that order: 10000 nM, more than 100000 nM, 762 nM and 0.3 nM.
On the same counts, the results for `NCC(Cn1nnn(Cc2cccc(-c3ccc(N4CCNCC4)cc3)c2)c1=O)=C(F)F` [Example 28, 1-[2-(aminomethyl)-3,3-difluoro-allyl]-4-[[3-(4-piperazin-1-ylphenyl)phenyl]methyl]tetrazol-5-one di-trifluoroacetate] are 35800 nM, 33000 nM, 5160 nM and 1.8 nM.
For the molecule `NCC(Cn1nnn(-c2cncc(-c3ccc4c(c3)OCO4)c2)c1=O)=C(F)F` [Example 48, 1-[2-(aminomethyl)-3,3-difluoro-allyl]-4-[5-(1,3-benzodioxol-5-yl)-3-pyridyl]tetrazol-5-one trifluoroacetate], the 50% inhibitory concentration (IC50) is 4400 nM in assay [1], 36900 nM in assay [2], 56 nM in assay [3] and 2.9 nM in assay [4].
Turning to `NCC(Cn1nnn(-c2cccc(-c3ccc(N4CCNCC4)cc3)c2)c1=O)=C(F)F` [Example 11, 1-[2-(aminomethyl)-3,3-difluoro-allyl]-4-[3-(4-piperazin-1-ylphenyl)phenyl]tetrazol-5-one trifluoroacetate], the half-maximal inhibitory concentration (IC50) is more than 100000 nM in assay [1], more than 100000 nM in assay [2], 351 nM in assay [3] and 7 nM in assay [4].
As to `Cc1nn(CC(CN)=C(F)F)c(=O)n1Cc1ccc(-c2ccc(N(C)C)nc2)s1` [Example 5, 2-[2-(aminomethyl)-3,3-difluoro-allyl]-4-[[5-[6-(dimethylamino)-3-pyridyl]-2-thienyl]methyl]-5-methyl-1,2,4-triazol-3-one trifluoroacetate], the IC50 in assay [1] is more than 100000 nM; in assay [2], more than 100000 nM; in assay [3] (setting [5]) it was more than 100000 nM; in assay [4] it was 2 nM.
On to `NCC(Cn1nnn(-c2ccc(-c3ccc(N4CCNCC4)cc3)cc2)c1=O)=C(F)F` [Example 17, 1-[2-(aminomethyl)-3,3-difluoro-allyl]-4-[4-(4-piperazin-1-ylphenyl)phenyl]tetrazol-5-one di-trifluoroacetate], for which the IC50 was 3990 nM in assay [1], more than 100000 nM in assay [2], 65 nM in assay [3] (setting [5]) and 1.2 nM in assay [4].
With `CCn1cc(-c2cccc(-n3nnn(CC(CN)=C(F)F)c3=O)c2)cn1` [Example 15, 1-[2-(aminomethyl)-3,3-difluoro-allyl]-4-[3-(1-ethylpyrazol-4-yl)phenyl]tetrazol-5-one trifluoroacetate], the IC50 in assay [1] was 43500 nM; in assay [2], more than 100000 nM; in assay [3], 113 nM; in assay [4], 1 nM.
